{"source": "patent EP3723745B1", "about": "“PHENOXY ACIDS FOR THE TREATMENT OF NEUROMUSCULAR DISORDERS” (NMD Pharma A/S, priority 2017, dated 2019)", "key": {"human CIC-1 channels": {"target": "T1, human CIC-1 channels (Homo sapiens, UniProt P35523)", "T1 construct": "host or cells: CHO cells constitutively expressing human ClC-1", "T1 sequence (P35523 whole entry)": "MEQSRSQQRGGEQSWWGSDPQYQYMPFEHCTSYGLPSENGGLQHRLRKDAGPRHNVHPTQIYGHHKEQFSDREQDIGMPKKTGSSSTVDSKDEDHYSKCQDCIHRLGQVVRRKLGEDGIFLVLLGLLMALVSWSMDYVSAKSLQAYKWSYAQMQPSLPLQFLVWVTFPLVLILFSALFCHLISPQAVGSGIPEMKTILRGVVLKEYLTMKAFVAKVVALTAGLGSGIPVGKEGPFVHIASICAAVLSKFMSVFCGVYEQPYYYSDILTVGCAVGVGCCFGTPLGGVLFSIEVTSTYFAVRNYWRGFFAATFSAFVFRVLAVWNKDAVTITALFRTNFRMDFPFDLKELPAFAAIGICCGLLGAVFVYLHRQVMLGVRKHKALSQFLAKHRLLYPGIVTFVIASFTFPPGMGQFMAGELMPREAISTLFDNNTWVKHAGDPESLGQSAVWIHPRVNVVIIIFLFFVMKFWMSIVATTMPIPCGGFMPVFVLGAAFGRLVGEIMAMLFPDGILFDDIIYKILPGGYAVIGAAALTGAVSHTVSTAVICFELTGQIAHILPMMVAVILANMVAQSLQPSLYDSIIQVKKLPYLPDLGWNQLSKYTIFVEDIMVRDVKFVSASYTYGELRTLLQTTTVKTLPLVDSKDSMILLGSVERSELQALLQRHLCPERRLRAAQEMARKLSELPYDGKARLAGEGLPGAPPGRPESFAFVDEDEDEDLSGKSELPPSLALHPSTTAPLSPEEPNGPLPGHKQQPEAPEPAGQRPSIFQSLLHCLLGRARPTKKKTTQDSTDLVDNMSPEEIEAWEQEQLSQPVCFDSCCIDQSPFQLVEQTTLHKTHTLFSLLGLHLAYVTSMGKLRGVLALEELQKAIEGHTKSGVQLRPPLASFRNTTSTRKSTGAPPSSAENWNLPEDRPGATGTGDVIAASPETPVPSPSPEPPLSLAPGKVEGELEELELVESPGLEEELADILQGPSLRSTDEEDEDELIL", "test": "Automated patch-clamp on human CIC-1 expressed in CHO cells", "type": "cell-based", "settings": "difference in half activation voltage, compound added intracellularly vs control cell patches; positive shift = CIC-1 inhibition", "method": "The investigatory goal of these experiments was to evaluate how compounds affect the open probability and current amplitude of human CIC-1 channels expressed in CHO cells. Experiments were performed using an automated patch clamp system that allowed high throughput testing of whole cell patches together with both intracellular and extracellular addition of compound.\nAutomated whole cell patch clamp experiments were performed with the Qpatch 16 system (Sophion Bioscience, Ballerup, Denmark) at room temperature. Data acquisition and analysis were performed in the Qassay software (ver. 5.6, Odense).\nTo evoke CIC-1 currents in whole cell patches, the membrane potential was initially stepped from a holding potential of -30 mV to +60 mV for 100 ms and then to various test voltages (sweeps) ranging from +120 mV to -140 mV in steps of 20 mV for 300 ms. To obtain tail currents, the membrane potential was stepped to -100 mV after each test voltage for 300 ms and then relaxed to -30 mV for 2 sec between sweeps (Figure 3). I/V relationships for whole cell instant and steady state current amplitudes were obtained by plotting average current densities at the beginning and at the end of the 300 ms step against the membrane potential (Figure 4).\nIn order to determine the relative overall open probability (P0), the instantaneous tail currents were normalized to the maximal tail current obtained following the most positive voltage step and plotted against the test voltage. Plots of normalized tail currents from each whole cell patch were then fitted to a Boltzmann function allowing determination of half activation voltages (V1/2, Figure 5).\nFor automated patch clamp experiments extracellular solutions contained: 2 mM CaCl2, 1 mM MgCl2, 10 mM HEPES, 4 mM KCI, 145 mM NaCl, 10 mM Glucose, pH adjusted to 7.4 with NaOH (2 M). Osmolality adjusted to -320 using sucrose.\nIntracellular solutions contained: 80 mM CsF, 60 mM CsCI, 5/1 mM KOH/EGTA, 10 mM HEPES, 10 mM NaCl, pH adjusted to 7.2 with NaOH (2 M). Osmolality adjusted to -320 mOsm using sucrose.\nCells used in patch clamp experiments were Chinese hamster ovary cells (CHO) constitutively expressing human CIC-1 channels. The amino acid sequence encoded by the cDNA used to create this cell line was identical to the translated sequence for GenBank accession number NM_000083.2. Cells were produced by Charles River (Catalogue CT6175, Cleveland OH, USA) in a cryopreserved format. Experiments were performed on the cells directly after thawing (3 × 10^6 cells used in each experiment).\nTo evaluate the compound effect on CIC-1, when applied directly to the intracellular side of the cell membrane, the half activation voltage, V1/2, was determined from whole cell patches with compound added to the intracellular solution and then compared to V1/2 determined from control cell patches with only vehicle added to the intracellular solution. Additionally, the effect of extracellular added compound was evaluated by determine V1/2 and steady state current amplitudes before and after exchanging the extracellular solution to contain compound.\nThe difference in half activation voltage of CIC-1 channels, ΔV1/2, was determined as the difference between the cell patches treated intracellularly with compound and control cells patches and is reported in Table 4 below. A positive shift in ΔV1/2 is reflecting CIC-1 channel inhibition by the tested compound. P-values of <0.05 is considered significant. […]"}, "female Lewis rats": {"test_system": "female Lewis rats", "test": "Measurement of in situ muscle contractile characteristics (isometric hindlimb force, cisatracurium block)", "type": "in vivo, rat", "settings": "for average increase in twitch peaks: 12 Hz; for average increase in twitch peaks / average increase in tetanic force: cisatracurium infusion; for average increase in tetanic force: 80 Hz; for restore force to muscles in vivo: muscles partially inhibited by a neuromuscular blocker, summary in words", "method": "Isometric hindlimb force was measured in 12-week old female Lewis rats in the presence and absence of compound.\nRats were placed under anesthesia with isoflurane (2-4%), intubated and subsequently connected to a micro ventilator (Microvent 1, Hallowell EMC, US). Two stimulation electrodes were inserted through the skin to stimulate the sciatic nerve. A small incision was made proximal to the ankle, to expose the Achilles tendon, which was tied by cotton string, and connected to a force transducer (Fort250, World Precision Instruments) with adjustable position (Vernier control). The Achilles tendon was then cut distal to the attached cotton string. The rat was placed on a heated pad, and to prevent movement artefacts from contraction of the ankle dorsiflexors, the foot was fixated by tape on a footplate.\nMuscle contractile properties were assessed by applying an electrical current (under supramaximal voltage conditions) to the nerve and recording the force generated by the muscle. The muscle was stretched until maximal force was obtained, when assessed by 2 Hz stimulation. Isometric force was measured every 30 seconds at 12 Hz (Twitch), 10 pulses, and at every 5 minutes at 80 Hz (Tetanic) for 1 second (80 pulses). This stimulation pattern was employed throughout the experiment, expect in few cases where 80 Hz stimulation was replaced by 12 Hz (10 pulses). […] When the level of neuromuscular inhibition was stable, the test article was injected i.v. at the chosen concentration. The effect of test article was assessed on its ability to increase force generated from the stimulation pattern applied. The effect was assessed in the ability to increase force per se (tetanic, 80 Hz, stimulation), and the ratio between individual twitch peaks (12 Hz stimulation). The effect was monitored for at least 1 hour after injection of test article. In addition, the time from injection of test article to maximal effect on force (both twitch and tetanic) was noted and the time for the effect to disappear (return to baseline), if possible. When appropriate the infusion of neuromuscular blocking agent was ceased, with the stimulation pattern continued, and the return of force to control levels was monitored. Animals were sacrificed by cervical dislocation while still fully sedated."}}}
{"smiles": "CC(C)[C@H](Oc1ccc(Br)cc1F)C(=O)O", "note": "[Compound A-27, (2S)-2-(4-bromo-2-fluorophenoxy)-3-methylbutanoic acid]", "values": [{"measurement": "ΔV1/2", "setting": "human CIC-1 channels", "result": 20.2, "unit": "mV"}, {"measurement": "average increase in twitch peaks", "setting": "female Lewis rats; 40 mg/kg i.v.", "result": 12.2, "unit": "%"}, {"measurement": "average increase in tetanic force", "setting": "female Lewis rats; 40 mg/kg i.v.", "result": 36.4, "unit": "%"}, {"measurement": "restore force to muscles in vivo", "setting": "female Lewis rats", "result": "can restore force"}]}
{"smiles": "[2H][C@@](CC)(Oc1ccc(Br)cc1)C(=O)O", "note": "[Compound A-60, (2S)-2-(4-bromophenoxy)(2-^2H)butanoic acid]", "values": [{"measurement": "ΔV1/2", "setting": "human CIC-1 channels", "result": 20.0, "unit": "mV"}, {"measurement": "average increase in twitch peaks", "setting": "female Lewis rats; 20 mg/kg i.v.", "result": 18.5, "unit": "%"}, {"measurement": "average increase in tetanic force", "setting": "female Lewis rats; 20 mg/kg i.v.", "result": 52.7, "unit": "%"}, {"measurement": "restore force to muscles in vivo", "setting": "female Lewis rats", "result": "can restore force"}]}
{"smiles": "O=C(O)[C@H](CCF)Oc1ccc(Br)cc1", "note": "[Compound A-87, (2S)-2-(4-bromophenoxy)-4-fluorobutanoic acid]", "values": [{"measurement": "ΔV1/2", "setting": "human CIC-1 channels", "result": 16.4, "unit": "mV"}, {"measurement": "average increase in twitch peaks", "setting": "female Lewis rats; 42 mg/kg i.v.", "result": 5.8, "unit": "%"}, {"measurement": "average increase in tetanic force", "setting": "female Lewis rats; 42 mg/kg i.v.", "result": 19.3, "unit": "%"}, {"measurement": "restore force to muscles in vivo", "setting": "female Lewis rats", "result": "can restore force"}]}
